These results are taken from PMC4169866 (Investigational New Drugs, 2014).

Bounds are passed on as bounds.

For one series, the target named is AKT1 (Homo sapiens, UniProt P31749). The series can be described thus: Biochemical kinase profiling AKT1.
The nature of series [1]: Tolerability in colo-205 xenograft-bearing mice. The series is classed as in vivo. Particulars: 56-day schedules. The protocol: All animal studies were performed in accordance with American Association for Laboratory Animal Care institutional guidelines, and all protocols were approved by the Eli Lilly and Company Animal Care and Use Committee. Tumor cell lines were grown, harvested, and resuspended in a 1:1 mixture of serum-free media and matrigel (BD Biosciences), and 5 × 10^6 cells were injected subcutaneously in the rear flank of 5-to-6-week-old CD1 nu/nu female mice (Charles River Laboratories for MV4-11, mice from Harlan Laboratories for others). Tumor volume was estimated by using the formula: vol = l × w^2 × […], where one and w are perpendicular measured diameters, and one is greater than or equal to w.
When the mean tumor volume was approximately 150–300 mm^3, animals were randomized by tumor volume and the compound was administered. […]. Gemcitabine was formulated in saline and administered by intraperitoneal injection. Tumor volume and body weight were measured twice weekly. When tumors were collected for biomarker analysis, the animals were asphyxiated with CO2 and the xenograft tumors excised, flash frozen in liquid nitrogen, and stored at −80 °C until analyzed. […] The log volume data were analyzed with a 2-way repeated measures analysis of variance by time and treatment using the MIXED procedure in SAS software (version 9.2). […]

The next series concerns the target PLK1 (Homo sapiens, UniProt P53350). The series can be described thus: Biochemical kinase profiling PLK1.
On the set-up of series [2]: method as in manuscript in preparation. Particulars: ref manuscript in preparation; cited from earlier work.
For series [3], the system named is MV4-11 acute myelocytic leukemia (AML) cells. Briefly: Flow cytometry cell cycle distribution, MV4-11. The format is cell-based, human. As to the method: (§1) Flow cytometry was also used to determine cell cycle distribution in cell lines, as described in the supplemental materials.
(§2) Flow cytometry was used to determine cell cycle distribution in cell lines. Cells were cultured in growth media under subconfluent conditions and treated with indicated concentrations of compound solubilized in DMSO for 24 hours at 37°C/5% CO2. After treatment, cells were collected, washed once with 4° C PBS, and fixed with 70% ethanol/30% water at -20 °C for 30 minutes. Cells were then collected by centrifugation, washed once with PBS, and stained for 30 minutes at room temperature by the addition of 1 mL of propidium iodide/Triton X-100 staining solution (20µg/mL of propidium iodide, 200µg/mL DNase-free RNase A, 0.1%(v/v) Triton x-100). Cell cycle analysis was performed using a Cytomics™ FC500 (Coulter); data were analyzed using ModFit v3.1 software (Verity).
In general terms: Flow cytometry measures light scatter and fluorescence of single cells or particles in a stream.

A further series concerns the target Aurora B (Homo sapiens, UniProt Q96GD4). Briefly: Biochemical kinase profiling Aurora B.
The subject of series [4] is Colo-205 colorectal xenografts. The series can be described thus: Subcutaneous colo-205 xenograft antitumor activity. The series is classed as in vivo, mice. Particulars: colo-205 xenografts. As to the method: All animal studies were performed in accordance with American Association for Laboratory Animal Care institutional guidelines, and all protocols were approved by the Eli Lilly and Company Animal Care and Use Committee. Tumor cell lines were grown, harvested, and resuspended in a 1:1 mixture of serum-free media and matrigel (BD Biosciences), and 5 × 10^6 cells were injected subcutaneously in the rear flank of 5-to-6-week-old CD1 nu/nu female mice (Charles River Laboratories for MV4-11, mice from Harlan Laboratories for others).
When the mean tumor volume was approximately 150–300 mm^3, animals were randomized by tumor volume and the compound was administered. […] Gemcitabine was formulated in saline and administered by intraperitoneal injection. Tumor volume and body weight were measured twice weekly. When tumors were collected for biomarker analysis, the animals were asphyxiated with CO2 and the xenograft tumors excised, flash frozen in liquid nitrogen, and stored at −80 °C until analyzed. For analysis, tumor volume data were transformed to a log scale to equalize variance across time and treatment groups. The log volume data were analyzed with a 2-way repeated measures analysis of variance by time and treatment using the MIXED procedure in SAS software (version 9.2). The correlation model for the repeated measures was spatial power. Treated groups are compared to the control group at each time point.

In another series the test system is pERK HCT116. The series can be described thus: pERK inhibition, HCT116. The format is cell-based. The note with it: Homo sapiens, HCT-116; read-out: pERK inh. HCT116 IC50.
Another series concerns the target T1, HIPK2 (Homo sapiens, UniProt Q9H2X6).
T1 construct: purchased Millipore/UBI
The series can be described thus: Millipore (UBI) kinase panel HIPK2. The note with it: generated at millipore (UBI) kinase panel. The series is classed as biochemical.

A further series addresses T2, TRKA (Homo sapiens, UniProt P04629).
T2 construct: purchased Millipore/UBI
The series can be described thus: Millipore (UBI) kinase panel TRKA. The series is classed as biochemical. The note with it: generated at millipore (UBI) kinase panel.

The next series concerns the target PLK3 (Homo sapiens, UniProt Q9H4B4). The series can be described thus: Biochemical kinase profiling PLK3.
Another series concerns U2OS cells. Briefly: DNA content (cell cycle) in U2OS phenotypic assay. The format is cell-based, human. The protocol:
U20S cells are cultured in McCoy's 5A modified media (Invitrogen), supplemented with 10% FBS and plated in 96-well, flat-bottom plates at a density of 5,000 cells/well for incubation overnight. Compounds in DMSO stock solution are diluted serially 1:3 in McCoy's 5A media and incubated with cells for 16 hours for multiplexing pCTD/DNA content readouts. Cells are fixed with Prefer (Anatech LTD, MI) for 30 minutes at room temperature and permeated with 0.1% Triton-X 100 in PBS or cold methanol (-20°C) for 15 minutes, respectively. After blocking with 1% BSA/PBS for 30 min, cells are incubated with primary antibody (CTD p-Ser2, Covance) at 1:1000 dilution in 1% BSA/PBS containing 50 ug/ml RNAse ([…], Sigma) at 4°C overnight. […] Table S1 and Figure S1.

For series [5], the system named is Rb-proficient MDA-MB-231 breast cancer cells. Briefly: Flow cytometry cell cycle distribution, MDA-MB-231. The format is cell-based, human. The protocol: as §1, §2

Chain of PLK1 (P53350 whole entry): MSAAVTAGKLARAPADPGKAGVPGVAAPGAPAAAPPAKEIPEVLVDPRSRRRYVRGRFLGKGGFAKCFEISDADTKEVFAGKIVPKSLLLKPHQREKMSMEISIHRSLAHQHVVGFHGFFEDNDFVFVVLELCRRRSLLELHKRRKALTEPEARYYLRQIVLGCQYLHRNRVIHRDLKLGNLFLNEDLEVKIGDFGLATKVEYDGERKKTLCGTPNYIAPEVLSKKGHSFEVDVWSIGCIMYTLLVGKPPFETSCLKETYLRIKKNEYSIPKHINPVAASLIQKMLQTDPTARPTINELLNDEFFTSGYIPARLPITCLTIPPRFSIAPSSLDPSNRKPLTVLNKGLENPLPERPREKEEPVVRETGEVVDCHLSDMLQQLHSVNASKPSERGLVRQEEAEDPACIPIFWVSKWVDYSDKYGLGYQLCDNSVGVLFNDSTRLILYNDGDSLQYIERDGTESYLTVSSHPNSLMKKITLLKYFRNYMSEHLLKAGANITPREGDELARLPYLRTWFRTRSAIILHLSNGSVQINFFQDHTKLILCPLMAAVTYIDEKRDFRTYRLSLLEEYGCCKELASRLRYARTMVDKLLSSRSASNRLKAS
Chain of Aurora B (Q96GD4 whole entry): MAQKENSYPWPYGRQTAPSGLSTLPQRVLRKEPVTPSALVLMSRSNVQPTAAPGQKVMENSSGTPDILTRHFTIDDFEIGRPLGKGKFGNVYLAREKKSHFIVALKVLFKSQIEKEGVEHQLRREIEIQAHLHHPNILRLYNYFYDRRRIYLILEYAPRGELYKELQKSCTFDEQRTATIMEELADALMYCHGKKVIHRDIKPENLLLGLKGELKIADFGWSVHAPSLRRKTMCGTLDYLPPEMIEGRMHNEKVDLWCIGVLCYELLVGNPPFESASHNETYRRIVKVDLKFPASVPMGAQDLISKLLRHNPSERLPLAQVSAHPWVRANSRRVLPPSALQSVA
Chain of PLK3 (Q9H4B4 whole entry): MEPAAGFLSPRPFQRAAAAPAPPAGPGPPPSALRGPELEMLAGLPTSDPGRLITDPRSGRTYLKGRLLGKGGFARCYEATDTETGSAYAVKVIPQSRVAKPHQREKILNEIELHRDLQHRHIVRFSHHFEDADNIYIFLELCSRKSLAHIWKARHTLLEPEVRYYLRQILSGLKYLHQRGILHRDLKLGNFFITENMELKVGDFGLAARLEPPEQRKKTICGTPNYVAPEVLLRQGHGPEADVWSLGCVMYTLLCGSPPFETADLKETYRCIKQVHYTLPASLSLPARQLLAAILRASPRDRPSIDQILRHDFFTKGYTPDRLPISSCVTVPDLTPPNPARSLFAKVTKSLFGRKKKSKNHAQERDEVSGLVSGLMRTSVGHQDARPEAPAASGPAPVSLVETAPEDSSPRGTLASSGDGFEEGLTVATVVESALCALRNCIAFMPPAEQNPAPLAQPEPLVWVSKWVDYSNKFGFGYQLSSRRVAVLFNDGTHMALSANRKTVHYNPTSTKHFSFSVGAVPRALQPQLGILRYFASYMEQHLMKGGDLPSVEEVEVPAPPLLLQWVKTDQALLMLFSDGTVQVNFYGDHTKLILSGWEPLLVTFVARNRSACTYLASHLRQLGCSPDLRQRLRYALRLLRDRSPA
Chain of AKT1 (P31749 whole entry): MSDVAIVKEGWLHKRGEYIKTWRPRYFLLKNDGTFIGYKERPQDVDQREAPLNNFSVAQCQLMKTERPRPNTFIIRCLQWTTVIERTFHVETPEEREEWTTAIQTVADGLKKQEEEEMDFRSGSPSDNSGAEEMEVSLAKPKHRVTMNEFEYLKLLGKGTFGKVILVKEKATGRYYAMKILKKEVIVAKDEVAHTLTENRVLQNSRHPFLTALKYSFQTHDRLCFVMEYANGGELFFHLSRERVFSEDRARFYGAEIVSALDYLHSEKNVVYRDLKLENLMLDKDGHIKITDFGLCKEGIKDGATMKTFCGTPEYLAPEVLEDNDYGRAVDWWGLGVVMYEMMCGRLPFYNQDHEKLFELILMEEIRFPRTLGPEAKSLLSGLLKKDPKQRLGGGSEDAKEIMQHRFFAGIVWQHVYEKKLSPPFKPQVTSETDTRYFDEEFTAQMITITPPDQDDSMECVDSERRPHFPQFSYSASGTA
T1 sequence (Q9H2X6 whole entry): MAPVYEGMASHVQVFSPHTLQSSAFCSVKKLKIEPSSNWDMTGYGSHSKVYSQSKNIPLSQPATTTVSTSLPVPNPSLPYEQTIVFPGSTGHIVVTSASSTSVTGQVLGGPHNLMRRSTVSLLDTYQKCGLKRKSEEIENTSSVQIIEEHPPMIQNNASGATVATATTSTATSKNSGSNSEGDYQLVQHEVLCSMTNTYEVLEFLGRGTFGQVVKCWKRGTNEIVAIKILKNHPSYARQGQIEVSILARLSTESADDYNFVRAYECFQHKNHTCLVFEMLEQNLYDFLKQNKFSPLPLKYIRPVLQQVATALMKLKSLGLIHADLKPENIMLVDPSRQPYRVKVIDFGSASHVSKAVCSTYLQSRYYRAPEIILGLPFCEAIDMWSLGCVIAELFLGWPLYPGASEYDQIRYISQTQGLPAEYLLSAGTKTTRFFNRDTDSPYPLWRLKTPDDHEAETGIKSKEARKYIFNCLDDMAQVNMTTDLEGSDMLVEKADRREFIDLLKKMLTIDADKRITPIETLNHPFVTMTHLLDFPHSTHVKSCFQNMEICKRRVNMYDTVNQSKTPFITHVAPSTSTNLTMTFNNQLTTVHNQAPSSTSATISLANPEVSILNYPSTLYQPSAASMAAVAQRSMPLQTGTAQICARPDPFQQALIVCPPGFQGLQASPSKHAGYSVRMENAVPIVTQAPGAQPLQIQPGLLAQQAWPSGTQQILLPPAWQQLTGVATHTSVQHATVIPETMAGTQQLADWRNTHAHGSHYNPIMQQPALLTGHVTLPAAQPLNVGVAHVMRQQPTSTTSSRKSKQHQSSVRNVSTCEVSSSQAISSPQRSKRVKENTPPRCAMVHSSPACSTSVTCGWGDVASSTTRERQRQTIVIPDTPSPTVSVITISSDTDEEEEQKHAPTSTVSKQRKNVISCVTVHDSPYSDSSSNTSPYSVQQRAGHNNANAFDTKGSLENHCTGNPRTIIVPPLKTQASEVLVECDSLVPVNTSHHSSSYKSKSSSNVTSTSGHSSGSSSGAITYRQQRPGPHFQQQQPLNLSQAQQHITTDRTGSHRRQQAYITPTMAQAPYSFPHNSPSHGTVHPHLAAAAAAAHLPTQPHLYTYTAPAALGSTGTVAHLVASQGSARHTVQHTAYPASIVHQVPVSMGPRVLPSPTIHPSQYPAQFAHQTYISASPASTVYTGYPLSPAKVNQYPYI
T2 sequence (P04629 33-796): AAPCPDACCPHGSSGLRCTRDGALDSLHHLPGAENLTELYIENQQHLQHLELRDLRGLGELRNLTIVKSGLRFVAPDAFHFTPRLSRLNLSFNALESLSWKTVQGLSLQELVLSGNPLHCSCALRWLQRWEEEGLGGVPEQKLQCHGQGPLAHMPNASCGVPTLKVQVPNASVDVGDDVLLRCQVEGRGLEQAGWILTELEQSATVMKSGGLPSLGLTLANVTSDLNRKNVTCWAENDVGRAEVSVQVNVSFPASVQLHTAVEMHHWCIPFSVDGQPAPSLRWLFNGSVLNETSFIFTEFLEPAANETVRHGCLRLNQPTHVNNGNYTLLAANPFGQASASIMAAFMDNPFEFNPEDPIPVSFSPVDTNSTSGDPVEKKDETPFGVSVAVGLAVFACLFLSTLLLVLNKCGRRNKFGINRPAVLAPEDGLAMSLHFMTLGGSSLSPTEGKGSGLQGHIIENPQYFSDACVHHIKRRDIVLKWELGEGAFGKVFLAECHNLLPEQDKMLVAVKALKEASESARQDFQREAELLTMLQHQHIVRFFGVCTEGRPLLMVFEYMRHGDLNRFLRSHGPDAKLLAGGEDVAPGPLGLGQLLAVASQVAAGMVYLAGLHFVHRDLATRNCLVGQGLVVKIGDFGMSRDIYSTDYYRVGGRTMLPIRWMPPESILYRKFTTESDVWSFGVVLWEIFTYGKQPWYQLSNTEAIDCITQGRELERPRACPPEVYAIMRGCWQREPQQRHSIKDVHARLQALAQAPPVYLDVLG

On to `CCN1CCN(Cc2ccc(Nc3ncc(F)c(-c4cc(F)c5nc(C)n(C(C)C)c5c4)n3)nc2)CC1` [LY2835219, [5-(4-Ethyl-piperazin-1-ylmethyl)-pyridin-2-yl]-[5-fluoro-4-(7-fluoro-3-isopropyl-2-methyl-3H-benzoimidazol-5-yl)-pyrimidin-2-yl]-amine], for which the IC50 (as a rule, the concentration that gives 50% inhibition) against AKT1 was > 20 µM; on PLK1, > 20 µM; against Aurora B it was > 20 µM; with pERK HCT116 it was > 20 µM; against HIPK2 it was 31 nM; on TRKA it was 1030 nM. The IC50 on PLK3 was > 20 µM. For the same compound, the “histopathologic evaluation of intestinal tissue (jejunum, ileum, cecum)” value in [1] (days 41 and 69) is listed as “no significant changes in intestinal tissue”. In series [1] (not dose-limiting), the hematologic changes result was “decreases in red cell mass and moderately reduced lymphocyte count”. Besides, on PLK1, the “activity against PLK1” value is listed as “Complete lack of activity”. Further, the “ability to cross the blood–brain barrier” value in series [2] was “effectively cross the blood–brain barrier”. The “compound concentration up to which G1 arrest was sustained” value in [3] (MV4-11) is “up to 5,000 nmol/L”. Further, in [3] (MV4-11, 24 h), the “concentration at which maximum G1 arrest was seen” value is ≥ 320 nmol/L. For the same compound, the “activity against Aurora B” value at Aurora B was “Complete lack of activity”. Also, the “minimally efficacious dose for tumor growth inhibition” value in series [4] came out at 12.5 mg/kg. The 2N cell population with U2OS cells (2.2 µM) was 56%; in the series on U2OS cells (6.6 µM), 44%. In addition, the figures for the S cell population with U2OS cells (2.2 µM) and with U2OS cells (6.6 µM) were 6% and 7%, respectively. The “G1 arrest in Rb-proficient cells” value in [5] is given as “induced a G1 arrest”.
